# Test results from patent publication US20180243325A1, “METHOD FOR INHIBITING ABSORPTION OF AND/OR PROMOTING EXCRETION OF LIPIDS USING D-PSICOSE” (CJ CHEILJEDANG CORPORATION, priority 2015, published 2018).
# How the values were obtained:
# Assay type in all cases: in vivo, C57BL/6J mice
# Fatty acid β-oxidation = Fatty acid β-oxidation activity in adipose tissue; details: FIG. 5A, epididymal white adipose tissue, HFD+5% w/w in diet, 16 weeks
# Protocol: First, 4-week-old male C57BL/6J mice (60 total) were purchased from Jackson Laboratory. The animals were acclimated to the vivarium in a thermo-hygrostat (20-23° C., 45-65%) under a 12 h light/dark cycle and fed a pelletized commercial non-purified diet for 1 week after arrival. The mice were then randomly divided into 6 groups (n=10) and fed the respective experimental diets for 16 weeks: normal diet group (ND, American Institute of Nutrition (AIN)-76 semi-synthetic diet), high-fat diet group (HFD, 20% fat+1% cholesterol based on AIN-76 diet), PSI group (HFD+5% D-psicose, w/w, Sigma Chemical Company), ERY group (HFD+5% erythritol, w/w, Sigma Chemical Company), GLU group (HFD+5% D-glucose, w/w, Sigma Chemical Company), and FRU group (HFD+5% D-fructose, w/w, Sigma Chemical Company). All high-fat diet-fed groups were allowed to ingest the same calories by pair feeding based on the PSI group. The mice had ad libitum access to distilled water during the experimental period. Their feed intakes and body weights were measured daily and biweekly, respectively. The organ weights and the adipose tissue weights of the mice were measured after sacrificing the animals. Samples were prepared and analyzed according to the method developed by Hulcher and Oleson. Specifically, the activity of fatty acid synthase (FAS) as a lipid regulating enzyme of epididymal white adipose tissue was measured by spectrophotometric assay according to the method described by Nepokroeff et al. Each sample was mixed with 100 μl of cytoplasmic fraction and the mixture was allowed to react at 30° C. for 2 min. A reduction in absorbance at 340 nm was measured. FAS activity units were expressed as nanomoles (nmol) of NADPH oxidized for 1 min per mg of cytoplasmic fraction. Fatty acid β-oxidation activity was measured by monitoring the reduction of NAD^+ to NADH in the presence of palmitoyl-CoA, as described by Lazarow. β-oxidation activity units were expressed as nanomoles (nmol) of NADH produced for 1 min per mg of mitochondrial protein.
# [1] = system: CPT1α (Carnitine palmitoyltransferase 1α, 12894); experiment: Hepatic mRNA expression, real-time quantitative PCR: CPT1α; details: FIG. 6, liver, HFD+5% w/w in diet, 16 weeks
# Protocol: (§1) First, 4-week-old male C57BL/6J mice (60 total) were purchased from Jackson Laboratory. The animals were acclimated to the vivarium in a thermo-hygrostat (20-23° C., 45-65%) under a 12 h light/dark cycle and fed a pelletized commercial non-purified diet for 1 week after arrival. The mice were then randomly divided into 6 groups (n=10) and fed the respective experimental diets for 16 weeks: normal diet group (ND, American Institute of Nutrition (AIN)-76 semi-synthetic diet), high-fat diet group (HFD, 20% fat+1% cholesterol based on AIN-76 diet), PSI group (HFD+5% D-psicose, w/w, Sigma Chemical Company), ERY group (HFD+5% erythritol, w/w, Sigma Chemical Company), GLU group (HFD+5% D-glucose, w/w, Sigma Chemical Company), and FRU group (HFD+5% D-fructose, w/w, Sigma Chemical Company). All high-fat diet-fed groups were allowed to ingest the same calories by pair feeding based on the PSI group. The mice had ad libitum access to distilled water during the experimental period. Their feed intakes and body weights were measured daily and biweekly, respectively. The organ weights and the adipose tissue weights of the mice were measured after sacrificing the animals.
# Samples were prepared and analyzed as previously described. Specifically, total RNA was synthesized into cDNA using a QuantiTect Reverse Transcription kit (QIAGEN Gmb1h, Hilden, Germany). RNA expression was quantified with real-time quantitative PCR using a QuantiTect SYBR Green PCR kit (QIAGEN Gmb1h, Hilden, Germany). Primers were designed to detect FAS (fatty acid synthase, 14101), ACC1 (Acetyl-CoA carboxylase 1, 107476), CPT1α (Carnitine palmitoyltransferase 1α, 12894), and CPT2 (Carnitine palmitoyltransferase 2, 12896). GAPDH was used as an internal transcription marker. The reaction was performed a total of 40 cycles (each consisting of 15 sec at 94° C., 30 sec at 58° C., 30 sec at 72° C., and 15 sec at 65° C.). Fluorescence signals were monitored every cycle and the resulting threshold cycles (Ct) were analyzed. mRNA expression in each experimental group was quantified using a CFX96 Real time system (Bio-rad, USA).
# [2] = system: fatty acid synthase (FAS); experiment: Hepatic lipid regulating enzyme activity: FAS; details: FIG. 4B, liver cytoplasmic fraction, HFD+5% w/w in diet, 16 weeks
# Protocol: First, 4-week-old male C57BL/6J mice (60 total) were purchased from Jackson Laboratory. The animals were acclimated to the vivarium in a thermo-hygrostat (20-23° C., 45-65%) under a 12 h light/dark cycle and fed a pelletized commercial non-purified diet for 1 week after arrival. The mice were then randomly divided into 6 groups (n=10) and fed the respective experimental diets for 16 weeks: normal diet group (ND, American Institute of Nutrition (AIN)-76 semi-synthetic diet), high-fat diet group (HFD, 20% fat+1% cholesterol based on AIN-76 diet), PSI group (HFD+5% D-psicose, w/w, Sigma Chemical Company), ERY group (HFD+5% erythritol, w/w, Sigma Chemical Company), GLU group (HFD+5% D-glucose, w/w, Sigma Chemical Company), and FRU group (HFD+5% D-fructose, w/w, Sigma Chemical Company). All high-fat diet-fed groups were allowed to ingest the same calories by pair feeding based on the PSI group. The mice had ad libitum access to distilled water during the experimental period. Their feed intakes and body weights were measured daily and biweekly, respectively. The organ weights and the adipose tissue weights of the mice were measured after sacrificing the animals. Samples were prepared and analyzed according to the method developed by Hulcher and Oleson. Specifically, the activity of fatty acid synthase (FAS) as a hepatic lipid regulating enzyme was measured by spectrophotometric assay according to the method described by Nepokroeff et al. Each sample was mixed with 100 μl of cytoplasmic fraction and the mixture was allowed to react at 30° C. for 2 min. A reduction in absorbance at 340 nm was measured. Fatty acid synthase (FAS) activity units were expressed as nanomoles (nmol) of NADPH oxidized for 1 min per mg of cytoplasmic fraction. Fatty acid β-oxidation activity was measured by monitoring the reduction of NAD^+ to NADH in the presence of palmitoyl-CoA, as described by Lazarow. β-oxidation activity units were expressed as nanomoles (nmol) of NADH produced for 1 min per mg of mitochondrial protein.
# [3] = system: high-fat diet-induced obese mice; experiment: Body weight, organ weight and adipose tissue weight of high-fat diet-induced obese mice; details: for Adipose times weight: Epididymal fat / Adipose times weight: Interscapular BAT / Adipose times weight: Interscapular WAT / Adipose times weight: Mesentery fat / Adipose times weight: Perinephric fat / Adipose times weight: Retroperitoneum fat / Adipose times weight: Subcutaneous fat / Adipose times weight: Total WAT / Adipose times weight: Visceral fat / BWG (weight gain) / FER (food efficiency ratio = Weight gain/diet intake) / FinalBodyweight / Organ weights: Kidney / Organ weights: Liver / Organ weights: Muscle: HFD+5% w/w in diet, 16 weeks
# Protocol: as §1
Compound,fatty acid β-oxidation activity in adipose tissue (Fatty acid β-oxidation),hepatic mRNA expression level of CPT1α [1],hepatic FAS activity [2],Adipose times weight: Epididymal fat [3] [g/100 g Body weight],Adipose times weight: Interscapular BAT [3] [g/100 g Body weight],Adipose times weight: Interscapular WAT [3] [g/100 g Body weight],Adipose times weight: Mesentery fat [3] [g/100 g Body weight],Adipose times weight: Perinephric fat [3] [g/100 g Body weight],Adipose times weight: Retroperitoneum fat [3] [g/100 g Body weight],Adipose times weight: Subcutaneous fat [3] [g/100 g Body weight],Adipose times weight: Total WAT [3] [g/100 g Body weight],Adipose times weight: Visceral fat [3] [g/100 g Body weight],BWG (weight gain) [3] [g/16 weeks],FER (food efficiency ratio = Weight gain/diet intake) [3],FinalBodyweight [3] [g],Organ weights: Kidney [3] [g/100 g Bodyweight],Organ weights: Liver [3] [g/100 g Bodyweight],Organ weights: Muscle [3] [g/100 g Bodyweight],"increases in the body weight over time ([3]; FIG. 1, HFD+5% w/w in diet, measured biweekly over 16 weeks)",Organ weights: Liver ([3]; listed as D-psicose)
"O=C[C@H](O)[C@@H](O)[C@H](O)[C@H](O)CO [GLU, D-glucose]",decreased significantly compared to those in the ND group,significantly lower than those in the ND group,increased significantly compared to those in the ND group,8.42,0.71,4.54,2.62,1.15,2.01,5.47,24.21,19.67,1.39,0.065,41.77,0.74,5.22,0.82,,
"O=C(CO)[C@@H](O)[C@H](O)[C@H](O)CO [FRU, D-fructose]",decreased significantly compared to those in the ND group,significantly lower than those in the ND group,increased significantly compared to those in the ND group,8.50,0.73,4.43,2.93,1.17,2.19,3.78,22.65,18.22,1.39,0.065,41.26,0.84,5.68,0.83,,
"OC[C@@H](O)[C@@H](O)CO [ERY, erythritol]",decreased significantly compared to those in the ND group,significantly lower than those in the ND group,increased significantly compared to those in the ND group,7.92,0.57,4.56,2.43,0.92,2.21,4.88,22.93,18.36,1.32,0.059,40.22,0.77,5.37,0.77,,
"O=C(CO)[C@H](O)[C@H](O)[C@H](O)CO [PSI, D-psicose]",increased significantly compared to those in other high-fat diet groups,much significantly lower than those in the ND group,decreased significantly compared to those in other high-fat diet groups,,,,,,,,,,0.70,,,,4.35,,considerably inhibited from 4 weeks after diet feeding,to levels similar to those of the ND group
